Data as given in ChEMBL document CHEMBL1201862, “PubChem BioAssay data set” (2004).
Activity calls are given as the source filed them.

How the values were obtained:
[1] = Luminescence Cell-Based Dose Confirmation HTS to Identify Activators of 5'UTR Stem-Loop Driven Alpha-Synuclein mRNA Translation in H4 Neuroglioblastoma Cells. [Related pubchem assays: 1829 (Project Summary), 1814 (Primary HTS)]; type: functional
[2] = Luminescence Cell-Based Dose Response HTS to Identify Activators of Luciferase Translation or Activity in H4 […] Cells. [Related pubchem assays: 1829 (Project Summary), 1814 (Primary HTS)]; type: functional
[3] = test system: H4; test: Luminescence Cell-Based Dose Response HTS to Identify Activators of 5'UTR Stem-Loop Driven Prion Protein mRNA Translation in H4 Neuroglioblastoma Cells. [Related pubchem assays: 1829 (Project Summary), 1814 (Primary HTS)]; type: functional; settings: Homo sapiens
[4] = target: Nonstructural protein 1 (Influenza A virus, UniProt Q194T2); type: functional, Influenza A virus (A/California/07/2009(H1N1))
Sequence of Nonstructural protein 1 (Q194T2 whole entry): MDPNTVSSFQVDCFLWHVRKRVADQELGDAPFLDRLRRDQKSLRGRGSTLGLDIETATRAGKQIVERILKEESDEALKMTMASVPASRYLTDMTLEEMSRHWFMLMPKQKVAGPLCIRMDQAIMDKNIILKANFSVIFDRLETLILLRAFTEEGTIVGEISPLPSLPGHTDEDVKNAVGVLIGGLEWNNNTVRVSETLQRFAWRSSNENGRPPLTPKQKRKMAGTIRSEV

[5] = target: T1, High affinity choline transporter 1 (Homo sapiens, UniProt Q9GZV3); test: human choline transporter blockers, potency – cell-based, 5-point CRC, membrane potential dye, dose response (AID 504840); type: functional
T1 sequence (Q9GZV3 whole entry): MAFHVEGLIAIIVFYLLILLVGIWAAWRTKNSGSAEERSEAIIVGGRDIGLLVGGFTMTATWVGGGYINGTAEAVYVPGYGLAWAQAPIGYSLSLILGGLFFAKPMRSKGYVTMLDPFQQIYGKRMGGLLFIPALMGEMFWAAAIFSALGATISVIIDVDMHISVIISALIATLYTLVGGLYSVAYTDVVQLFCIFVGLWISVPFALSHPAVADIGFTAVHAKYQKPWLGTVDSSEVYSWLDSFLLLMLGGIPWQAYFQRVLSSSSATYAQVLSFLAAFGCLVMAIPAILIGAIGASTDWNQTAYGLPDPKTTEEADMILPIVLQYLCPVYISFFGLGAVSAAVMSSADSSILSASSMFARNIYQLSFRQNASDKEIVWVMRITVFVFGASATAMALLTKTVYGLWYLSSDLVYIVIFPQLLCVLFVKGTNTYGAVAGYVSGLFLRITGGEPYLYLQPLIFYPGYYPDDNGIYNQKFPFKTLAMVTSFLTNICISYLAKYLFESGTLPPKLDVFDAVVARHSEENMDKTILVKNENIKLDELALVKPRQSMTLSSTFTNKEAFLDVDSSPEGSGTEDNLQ

[6] = target: T2, Fatty acid synthase (Homo sapiens, UniProt P49327); test: inhibition of human FAS-TE enzyme activity – biochemical, endpoint fluorescence intensity, uHTS hits, dose response (AID 624327); type: functional;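 also: fluorescence from hydrolysis of an O-methyl fluorescein acyl ester substrate by the enzyme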
T2 sequence (P49327 whole entry): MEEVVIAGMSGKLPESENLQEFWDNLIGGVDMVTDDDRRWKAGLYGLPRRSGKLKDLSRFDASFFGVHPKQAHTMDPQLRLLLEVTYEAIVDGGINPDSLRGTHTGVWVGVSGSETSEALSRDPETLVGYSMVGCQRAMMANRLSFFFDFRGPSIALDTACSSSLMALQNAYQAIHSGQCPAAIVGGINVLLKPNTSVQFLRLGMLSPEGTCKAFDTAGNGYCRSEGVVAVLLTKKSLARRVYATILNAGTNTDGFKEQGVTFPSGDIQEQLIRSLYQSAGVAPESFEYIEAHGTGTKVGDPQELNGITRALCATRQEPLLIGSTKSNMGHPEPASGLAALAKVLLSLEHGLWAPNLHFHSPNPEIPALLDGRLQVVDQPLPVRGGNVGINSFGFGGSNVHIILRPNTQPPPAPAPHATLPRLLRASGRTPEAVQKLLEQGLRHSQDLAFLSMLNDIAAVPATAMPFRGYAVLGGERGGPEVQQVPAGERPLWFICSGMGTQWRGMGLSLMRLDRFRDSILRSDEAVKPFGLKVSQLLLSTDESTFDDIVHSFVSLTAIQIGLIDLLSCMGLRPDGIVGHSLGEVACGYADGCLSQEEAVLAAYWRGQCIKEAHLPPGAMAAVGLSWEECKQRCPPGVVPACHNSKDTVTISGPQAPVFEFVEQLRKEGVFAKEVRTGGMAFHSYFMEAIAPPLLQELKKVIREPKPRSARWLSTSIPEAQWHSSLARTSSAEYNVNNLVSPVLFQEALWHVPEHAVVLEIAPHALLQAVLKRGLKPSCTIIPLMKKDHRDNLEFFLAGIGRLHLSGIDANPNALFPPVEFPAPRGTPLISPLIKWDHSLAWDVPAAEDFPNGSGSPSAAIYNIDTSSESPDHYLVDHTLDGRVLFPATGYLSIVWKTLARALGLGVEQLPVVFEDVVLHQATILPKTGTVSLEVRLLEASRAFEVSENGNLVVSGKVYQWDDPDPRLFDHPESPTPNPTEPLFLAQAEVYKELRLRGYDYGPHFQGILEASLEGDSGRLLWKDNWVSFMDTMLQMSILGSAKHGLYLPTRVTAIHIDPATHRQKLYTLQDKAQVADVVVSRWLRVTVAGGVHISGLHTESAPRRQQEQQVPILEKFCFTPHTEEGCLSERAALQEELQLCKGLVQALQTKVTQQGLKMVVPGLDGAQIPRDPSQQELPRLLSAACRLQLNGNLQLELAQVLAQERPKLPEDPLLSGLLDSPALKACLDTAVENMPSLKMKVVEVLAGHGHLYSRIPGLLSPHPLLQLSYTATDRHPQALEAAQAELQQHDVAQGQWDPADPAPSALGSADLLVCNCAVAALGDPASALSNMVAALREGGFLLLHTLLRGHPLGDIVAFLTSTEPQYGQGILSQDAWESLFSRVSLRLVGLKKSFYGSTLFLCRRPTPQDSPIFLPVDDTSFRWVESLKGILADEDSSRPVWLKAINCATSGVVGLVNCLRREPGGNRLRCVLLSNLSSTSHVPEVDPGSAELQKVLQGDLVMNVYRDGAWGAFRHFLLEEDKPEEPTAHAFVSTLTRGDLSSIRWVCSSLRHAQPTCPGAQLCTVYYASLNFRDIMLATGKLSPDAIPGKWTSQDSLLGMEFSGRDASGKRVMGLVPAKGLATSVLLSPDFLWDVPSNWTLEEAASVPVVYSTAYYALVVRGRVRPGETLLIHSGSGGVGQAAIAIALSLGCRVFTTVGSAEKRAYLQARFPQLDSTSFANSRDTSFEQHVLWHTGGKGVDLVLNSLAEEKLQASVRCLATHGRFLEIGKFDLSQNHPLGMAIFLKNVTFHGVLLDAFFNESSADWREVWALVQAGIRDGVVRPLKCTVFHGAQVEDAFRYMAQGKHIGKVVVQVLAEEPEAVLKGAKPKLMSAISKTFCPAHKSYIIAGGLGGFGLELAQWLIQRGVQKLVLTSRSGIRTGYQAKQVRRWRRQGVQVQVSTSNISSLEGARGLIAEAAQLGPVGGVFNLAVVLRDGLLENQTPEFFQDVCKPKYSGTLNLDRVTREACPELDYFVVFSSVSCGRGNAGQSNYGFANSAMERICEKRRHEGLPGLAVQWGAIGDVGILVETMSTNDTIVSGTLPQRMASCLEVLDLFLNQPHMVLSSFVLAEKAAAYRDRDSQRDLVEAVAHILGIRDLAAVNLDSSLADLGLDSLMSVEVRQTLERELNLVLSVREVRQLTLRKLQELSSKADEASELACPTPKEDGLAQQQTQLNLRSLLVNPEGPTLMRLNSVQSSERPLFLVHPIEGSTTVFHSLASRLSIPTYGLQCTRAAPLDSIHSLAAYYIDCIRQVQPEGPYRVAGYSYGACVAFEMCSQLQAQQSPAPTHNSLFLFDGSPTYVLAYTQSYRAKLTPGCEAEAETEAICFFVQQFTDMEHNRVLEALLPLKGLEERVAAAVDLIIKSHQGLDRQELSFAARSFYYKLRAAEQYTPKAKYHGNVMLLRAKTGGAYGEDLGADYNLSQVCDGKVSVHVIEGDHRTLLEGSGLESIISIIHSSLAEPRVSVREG

[7] = target: T2, Fatty acid synthase; test: inhibition of human FAS-TE enzyme activity – biochemical, kinetic fluorescence intensity, dose response (AID 624326); type: functional;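 also: rate of fluorescence rise from hydrolysis of a fluorogenic O-methyl fluorescein ester substrate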
[8] = NIH-3T3 fibroblast cytotoxicity, dose response, cytotoxicity control, cell-based, fluorescence, Alamar Blue, secondary assay (AID 2327); type: functional;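 also: NIH-3T3 mouse fibroblasts cultured with fluconazole at 8 µg/mL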
[9] = target: T3, Calpain-2 catalytic subunit (Sus scrofa, UniProt P43367); test: m-calpain protease blockers, concentration series – biochemical, fluorogenic peptide substrate, dose response (AID 1420); type: functional
T3 sequence (P43367 whole entry): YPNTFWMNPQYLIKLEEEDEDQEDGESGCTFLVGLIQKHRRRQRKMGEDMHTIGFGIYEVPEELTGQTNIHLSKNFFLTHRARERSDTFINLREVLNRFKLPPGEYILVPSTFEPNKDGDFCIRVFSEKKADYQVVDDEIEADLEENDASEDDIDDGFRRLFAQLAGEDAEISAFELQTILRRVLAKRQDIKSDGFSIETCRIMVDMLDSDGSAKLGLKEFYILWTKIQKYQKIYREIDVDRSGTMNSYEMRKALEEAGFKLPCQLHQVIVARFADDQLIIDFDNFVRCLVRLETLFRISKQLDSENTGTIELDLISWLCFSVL

[10] = fluconazole-exposed Candida albicans growth modulators – fluorescence, retest, confirmation (AID 2467); type: functional, cell-based
[11] = target: T4, Polyadenylate-binding protein 1 (Homo sapiens, UniProt P11940); test: MLLE binding blockers, Cy5 peptide tracer – biochemical, fluorescence polarization, Cy5-PAM2 peptide, secondary, miRNA deadenylation inhibitor project, dose response (AID 602260); type: functional; settings: read-out: IC50_Mean
T4 sequence (P11940 whole entry, the tested form may be a part): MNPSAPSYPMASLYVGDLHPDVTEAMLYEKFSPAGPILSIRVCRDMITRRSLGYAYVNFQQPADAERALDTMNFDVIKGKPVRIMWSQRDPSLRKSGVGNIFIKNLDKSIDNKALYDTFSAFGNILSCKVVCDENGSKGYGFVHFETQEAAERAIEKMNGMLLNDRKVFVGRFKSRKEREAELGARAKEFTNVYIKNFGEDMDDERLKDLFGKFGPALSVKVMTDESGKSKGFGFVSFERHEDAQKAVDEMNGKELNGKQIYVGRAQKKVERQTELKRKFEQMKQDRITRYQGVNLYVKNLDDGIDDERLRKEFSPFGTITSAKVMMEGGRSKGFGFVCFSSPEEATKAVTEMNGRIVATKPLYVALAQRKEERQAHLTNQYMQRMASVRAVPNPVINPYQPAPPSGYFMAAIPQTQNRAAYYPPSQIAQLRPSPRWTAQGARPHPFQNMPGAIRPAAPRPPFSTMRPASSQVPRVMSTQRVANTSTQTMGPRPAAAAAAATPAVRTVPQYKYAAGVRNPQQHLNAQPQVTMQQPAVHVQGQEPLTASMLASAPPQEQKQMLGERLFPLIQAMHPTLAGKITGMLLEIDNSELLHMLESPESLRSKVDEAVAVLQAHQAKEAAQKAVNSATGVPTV

[12] = target: T4, Polyadenylate-binding protein 1; test: MLLE domain peptide-binding blockers, IC50 – biochemical, fluorescence polarization, FITC-PAM2 peptide, dose response (AID 602259); type: functional; settings: read-out: IC50_Mean
[13] = target: T5, Corticotropin-releasing factor receptor 2/Corticotropin-releasing factor-binding protein (Homo sapiens, UniProt P24387+Q13324); test: Dose Response confirmation of uHTS hits for small molecule antagonists of the CRF-binding protein and CRF-R2 receptor complex.; type: functional; settings: read-out: IC50_Mean
T5 sequence (Q13324 whole entry): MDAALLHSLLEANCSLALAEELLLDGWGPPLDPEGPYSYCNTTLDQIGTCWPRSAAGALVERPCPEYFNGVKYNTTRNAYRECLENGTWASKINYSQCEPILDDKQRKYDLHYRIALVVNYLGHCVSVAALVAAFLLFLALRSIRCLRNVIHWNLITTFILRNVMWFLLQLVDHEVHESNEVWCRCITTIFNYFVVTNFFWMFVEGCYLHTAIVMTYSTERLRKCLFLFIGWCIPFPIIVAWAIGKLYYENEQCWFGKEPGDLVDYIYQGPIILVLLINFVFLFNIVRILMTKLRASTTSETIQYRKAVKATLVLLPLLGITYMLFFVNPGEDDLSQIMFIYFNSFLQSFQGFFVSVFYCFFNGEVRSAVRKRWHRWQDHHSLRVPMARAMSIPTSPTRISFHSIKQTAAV
T5 sequence (P24387 whole entry): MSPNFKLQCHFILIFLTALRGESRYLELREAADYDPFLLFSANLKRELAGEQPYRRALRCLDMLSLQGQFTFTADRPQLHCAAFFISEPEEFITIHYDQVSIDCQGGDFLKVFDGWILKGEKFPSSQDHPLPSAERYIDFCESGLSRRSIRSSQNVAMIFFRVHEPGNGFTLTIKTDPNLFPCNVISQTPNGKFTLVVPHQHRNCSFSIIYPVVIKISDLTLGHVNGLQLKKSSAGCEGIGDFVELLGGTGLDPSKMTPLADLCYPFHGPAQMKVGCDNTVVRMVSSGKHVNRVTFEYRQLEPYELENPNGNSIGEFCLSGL

[14] = target: T5, Corticotropin-releasing factor receptor 2/Corticotropin-releasing factor-binding protein; test: activators of CRF receptor 2 with binding protein – uHTS hits, confirmation (AID 602473); type: functional; settings: read-out: EC50_Mean
[15] = target: Cytochrome P450 2C19 (Homo sapiens, UniProt P33261); test: Cytochrome panel assay with activity outcomes. Panel member name: p450-cyp2c19 Compounds with AC50 equal or less than 10 uM are considered active; type: functional; settings: read-out: AC50
Sequence of Cytochrome P450 2C19 (P33261 whole entry): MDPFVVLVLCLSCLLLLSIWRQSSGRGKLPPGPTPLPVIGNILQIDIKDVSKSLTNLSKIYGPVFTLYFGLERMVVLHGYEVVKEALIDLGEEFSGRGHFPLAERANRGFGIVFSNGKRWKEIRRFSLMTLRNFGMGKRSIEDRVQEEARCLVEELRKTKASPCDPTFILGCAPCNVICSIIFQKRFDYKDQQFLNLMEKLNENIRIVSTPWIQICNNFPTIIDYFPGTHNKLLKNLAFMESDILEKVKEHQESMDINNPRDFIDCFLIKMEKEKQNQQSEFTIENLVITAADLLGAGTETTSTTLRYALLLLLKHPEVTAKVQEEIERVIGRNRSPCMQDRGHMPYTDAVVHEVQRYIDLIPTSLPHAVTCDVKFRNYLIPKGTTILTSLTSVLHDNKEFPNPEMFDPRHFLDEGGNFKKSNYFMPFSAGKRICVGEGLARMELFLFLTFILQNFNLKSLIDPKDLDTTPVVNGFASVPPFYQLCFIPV

[16] = P. falciparum Dd2 growth inhibitors, dose response, SYBR Green, cherry-picked samples (AID 1159567); type: functional, cell-based

CCOc1ccc(-c2nc(C)c(C(C)=O)n2O)cc1
EC50 [1]: 14.1 µM (active) | EC50 [2]: 9.13 µM (active) | EC50 [3]: 8.13 µM (active)

COc1ccc(C2CC(=O)Oc3c(C(CCN4CCCCC4)c4ccc(N(C)C)cc4)c(OC)cc(OC)c32)cc1 (stereo not given)
IC50 [4]: 18 µM (active) | IC50 [5]: 14.5 µM (active)

O=[N+]([O-])c1ccc(S(=O)(=O)Nc2nnc(C3CCCCC3)s2)cc1
IC50 [6]: 7.87 µM (active) | IC50 [7]: 7.54 µM (active)

CC(C)N1C(=O)S/C(=C\c2ccc(-c3ccc(Cl)c(C(=O)O)c3)o2)C1=O
IC50 [6]: 5.26 µM (active) | IC50 [7]: 5.51 µM (active)

CC(C)(C)NC(=O)NC(=O)COC(=O)Cc1ccc(Cl)cc1Cl
IC50 [6]: 9.97 µM (active) | IC50 [7]: 9.75 µM (active)

O=C1c2ccccc2C(=O)c2c1cccc2N1CCCC1
IC50 [4]: 7.3 µM (active) | EC50 [8]: 55.6 µM (active) | IC50 [9]: 14.6 µM (not active) | EC50 [10]: > 38 µM (not active)

Clc1ccc(SCc2cn3ccsc3n2)cc1
EC50 [1]: 89.9 µM (active) | EC50 [2]: 21 µM (active) | EC50 [3]: > 120 µM (not active)

Cc1ccc(S(=O)(=O)Nc2nc3ccccc3nc2Nc2cccc(S(=O)(=O)N3CCCC3)c2)cc1
IC50 [11]: > 66 µM (inactive) | IC50 [12]: > 66 µM (inactive)

Cn1c(=O)c([N+](=O)[O-])c(N2CCN(Cc3ccc4c(c3)OCO4)CC2)c2ccccc21
IC50 [6]: 2.71 µM (active) | IC50 [7]: 4.73 µM (active)

O=C1OC(c2ccccc2)=NC12CC2c1ccc(Cl)cc1 (stereo not given)
IC50 [6]: 0.293 µM (active) | IC50 [7]: 0.238 µM (active)

Cc1nc(CCNC(=O)CC2C(=O)NCCN2Cc2ccccc2)sc1C (stereo not given)
IC50 [11]: > 66 µM (inactive) | IC50 [12]: > 66 µM (inactive)

CC(C)(C)OC(=O)NCCCC[C@H](NC(=O)c1[nH]cnc1C(=O)Nc1ccccc1)C(=O)OC(C)(C)C
IC50 [6]: 2.63 µM (active) | IC50 [7]: 3.01 µM (active)

CCC(CC)COC(=O)C1=C(C)NC(=O)NC1c1ccc([N+](=O)[O-])cc1 (stereo not given)
IC50 [6]: 4.35 µM (active) | IC50 [7]: 5.94 µM (active)

CN1CCN(NC(=O)CN2C(=O)S/C(=C\c3c(Cl)cccc3Cl)C2=O)CC1
IC50 [11]: > 66 µM (inactive) | IC50 [12]: > 66 µM (inactive)

CCN(C(=O)COC(=O)c1cc([N+](=O)[O-])ccc1N1CCOCC1)c1ccccc1
IC50 [6]: 1.94 µM (active) | IC50 [7]: 1.86 µM (active)

Cc1c(-c2ccc(Cl)cc2)[n+]([O-])c(-c2ccccc2)c[n+]1[O-]
IC50 [13]: > 47.1 µM (inactive) | EC50 [1]: > 120 µM (not active) | EC50 [2]: > 120 µM (not active) | EC50 [14]: > 53 µM (inactive) | EC50 [3]: > 120 µM (not active)

C[C@H](O)[C@H](O)[C@H]1CNc2nc(N)[nH]c(=O)c2N1
IC50 [11]: > 66 µM (inactive) | IC50 [12]: > 66 µM (inactive)

Cc1ccc(C(=O)c2nc3c(n2O)CCCC3)cc1
EC50 [1]: > 120 µM (not active) | EC50 [2]: > 120 µM (not active) | EC50 [3]: 25.7 µM (active)

CC(Oc1ccc2c(c1)c1ccnc3c4ccccc4c(=O)n2c13)C(=O)NCCN1CCOCC1 (stereo not given)
EC50 [1]: 19.6 µM (active) | EC50 [2]: 12.5 µM (active) | EC50 [3]: > 120 µM (not active)

O=C1NC(=O)N2CCSC2(Cc2ccccc2)N1 (stereo not given)
IC50 [11]: > 66 µM (inactive) | IC50 [12]: > 66 µM (inactive)

COc1ccc(-c2nn(-c3ccccc3)cc2/C=N/NC(=O)c2ccc3c(c2)OCO3)cc1
EC50 [1]: 18.3 µM (active) | EC50 [2]: 12.2 µM (active) | AC50 [15]: 2.24 µM (inconclusive) | EC50 [3]: 18.5 µM (active)

C/C(=N\NC(=O)CN1CCCCC1)c1cccc([N+](=O)[O-])c1
EC50 [1]: 13.6 µM (active) | EC50 [2]: 9.5 µM (active) | EC50 [3]: 26.9 µM (active)

CN1c2ccc(-c3cccc(F)c3)cc2[C@@H]2[C@@H](CCN2C(=O)C2CC2)[C@@H]1CO
AC50 [16]: 16.8 µM (active)

CCC(=O)N1CCC2(CC1)CN(Cc1ccc(Cl)cc1)[C@@H](CO)c1[nH]c3cc(OC)ccc3c12
AC50 [16]: 3.79 µM (active)

C[C@H]1CN([C@@H](C)CO)S(=O)(=O)c2ccc(C#Cc3ccncc3)cc2O[C@@H]1CN(C)S(=O)(=O)c1ccc(F)cc1
AC50 [16]: 3.9 µM (active)

CCC(=O)N1CCC2(CC1)CN(C(=O)Nc1ccc(F)cc1)[C@@H](CO)c1c2c2ccc(OC)cc2n1C
AC50 [16]: 4.37 µM (active)

COc1ccc2c3c(n(C)c2c1)[C@@H](CO)N(S(C)(=O)=O)CC31CCN(C(=O)CN(C)C)CC1
AC50 [16]: 4.28 µM (active)

CCCN(C)C[C@@H]1Oc2cc(C#Cc3ccccc3)ccc2S(=O)(=O)N([C@@H](C)CO)C[C@@H]1C
AC50 [16]: 4.59 µM (active)

O=C(C1CCCC1)N1CC(=O)N2[C@H](CO)[C@@H](c3ccc(C#CCc4ccccc4)cc3)[C@@H]2C1
AC50 [16]: 6.57 µM (active)

CO[C@@H]1CN(C)C(=O)c2ccc(NC(=O)c3nc4ccccc4s3)cc2OC[C@H](C)N(Cc2cccnc2)C[C@@H]1C
AC50 [16]: 5 µM (active)

COc1ccc2c3c([nH]c2c1)[C@H](CO)N(Cc1cccc(Cl)c1)CC31CCN(C(C)=O)CC1
AC50 [16]: 4.26 µM (active)
